In patent US20240140949A1, “ANTI-CANCER PHARMACEUTICAL COMPOSITION FOR TARGETING HEAT SHOCK PROTEIN 70, CONTAINING INDOLOQUINAZOLIDINE ALKALOID” (SEOUL NATIONAL UNIVERSITY R & DB FOUNDATION, priority 2021, published 2024):

Legend:
[1] = system: cancer cell lines of various origins; assay: Anchorage-dependent colony formation in cancer cell lines of various origins; type: cell-based, human; details: 50 nM, 2 weeks (FIG. 3)
Source text: Human lung cancer cell lines (H1299, H460, A549, H226B, and PC9), breast cancer cell line (MDA-MB-231), liver cancer cell line (Hep3B), kidney cancer cell line (786-0), prostate cancer cell lines (DU145 and PC-3), and mouse lung cancer cell line (Lewis Lung Carcinoma, LLC) were purchased from ATCC (American Type Culture Collection) or obtained from Dr. John V. Heymach of MD Anderson Cancer Center, USA. The human head and neck cancer cell line (UMSCC38) was obtained from Dr. Jeffrey N. Myers (MD Anderson Cancer Center, USA). Human colon cancer cell lines (HCT116 and HT-29) and glioblastoma cell line (U87MG) were obtained from Professor Sang Kook Lee (Seoul National University College of Pharmacy). The human kidney cancer cell line (Caki-1), and gastric cancer cell line (SNU-638) were purchased from the Korean Cell Line Bank. […]
Cancer cell lines were seeded in a 24-well or 6-well plate at 100-250 cells per well and allowed to attach, followed by treatment with drugs diluted in media and cultured for 2-3 weeks. Formed colonies were stained with crystal violet and counted. The drug's colony formation inhibitory effect was calculated as the percentage of colony number change in the drug-treated group compared to the vehicle (DMSO)-treated control group.

[2] = system: Hsp70 protein and Hsp70/Hsp90 client proteins (Akt, Src, and MEK); assay: Western blot of Hsp70 and client proteins in lung cancer cells; type: cell-based, human
Source text: Human lung cancer cell lines (H1299, H460, A549, H226B, and PC9), breast cancer cell line (MDA-MB-231), liver cancer cell line (Hep3B), kidney cancer cell line (786-0), prostate cancer cell lines (DU145 and PC-3), and mouse lung cancer cell line (Lewis Lung Carcinoma, LLC) were purchased from ATCC (American Type Culture Collection) or obtained from Dr. John V. Heymach of MD Anderson Cancer Center, USA. The human head and neck cancer cell line (UMSCC38) was obtained from Dr. Jeffrey N. Myers (MD Anderson Cancer Center, USA). Human colon cancer cell lines (HCT116 and HT-29) and glioblastoma cell line (U87MG) were obtained from Professor Sang Kook Lee (Seoul National University College of Pharmacy). The human kidney cancer cell line (Caki-1), and gastric cancer cell line (SNU-638) were purchased from the Korean Cell Line Bank. The chemotherapy-resistant cells [paclitaxel-resistant H460 cells (H460/PcR), paclitaxel-resistant H226B cells (H226B/PcR), cisplatin-resistant H1299 cells (H1299/CsR), pemetrexed-resistant H1299 cells (H1299/PmR)] and molecularly targeted anticancer therapy-resistant cells [erlotinib-resistant PC9 cells (PC9/ER)] were constructed by treating the respective anti-cancer drugs for more than three months. H1299, H460, H226B, PC9, Hep3B, 786-0, DU145, PC-3, HCT116, HT-29, SNU-638, chemotherapeutic resistant cells, and molecularly targeted anticancer therapy-resistant cells were cultured in RPMI 1640 media containing 10% fetal bovine serum (FBS) and antibiotics at 37° C. under 5% CO2 conditions, while MDA-MB-231, UMSCC38, U87MG, Caki-1 were cultured in DMEM media containing 10% FBS and antibiotics at 37° C. under 5% CO2 conditions. Cells were passaged 1-2 times per week.
The cells treated with the drug were treated with RIPA lysis buffer [50 mM Tris-HCl (pH 7.4), 150 mM NaCl, 1 mM EDTA, 0.25% sodium deoxycholate, 1% Triton X-100, 100 mM NaF, 5 mM Na3VO4, 1 mM PMSF, 1 μg/mL aprotinin, 1 μg/mL leupeptin, and 1 μg/mL pepstatin], followed by incubation on ice for 10 minutes and centrifugation at 13,000 rpm for 15 minutes to extract proteins. The proteins were quantified by BCA assay and equal amounts of proteins were separated by 8-10% SDS-PAGE. The separated proteins were transferred to a PVDF membrane, and the areas of the membrane not transferred with protein were blocked by incubating the membrane in 5% skim milk solution or 3% BSA solution diluted in TBST at room temperature for 1 hour. The membrane was then incubated in a primary antibody solution diluted 1:1,000 in 3% BSA at 4° C. for more than 12 hours. The primary antibody used was either anti-Hsp70 or anti-actin, with the anti-Hsp70 antibody obtained from Enzo Life Science and the actin antibody obtained from Santa Cruz Biotechnology. After incubation, the membrane was washed for 1 hour while changing TBST several times, and then incubated for 1 hour at room temperature with a secondary antibody (GeneTex) diluted 1:5,000 in 5% skim milk solution. After incubation, the membrane was washed for 1 hour while changing TBST several times, and then treated with an enhanced chemiluminescence (ECL) solution. The expression of Hsp70 or Actin protein was detected using LAS4000.

[3] = molecular target: T1, Hsp70 protein (full length, N-terminal domain) (Homo sapiens, UniProt P0DMV8); assay: Drug affinity responsive target stability (DARTS); type: binding; details: up to 10 μM, proteinase K (FIG. 6)
T1 construct: 35 μg of Hsp70 full length, Hsp70 N-terminal, Hsp70 C-terminal proteins were treated with vehicle (DMSO)
Procedure: 35 μg of Hsp70 full length, Hsp70 N-terminal, Hsp70 C-terminal proteins were treated with vehicle (DMSO) or up to 10 μM of EV507 (final DMSO concentration: 1%) at 4° C. for 30 minutes, followed by a treatment with proteinase K (proteinase K:protein=1:100) at room temperature for 15 minutes. The reaction was terminated by adding a 5×SDS-PAGE sample buffer and boiling at 95° C. for 5 minutes, after which electrophoresis was performed with 8% SDS-PAGE. The proteins were transferred to a PVDF membrane, and the Western blot analysis method described above was performed.

lung cancer cell = assay: Cancer cell survival inhibitory activity (MTT assay) of EV501 to EV509; type: cell-based; details: 0.5 μM (lowest concentration), MTT assay (FIG. 18)
Procedure: The cancer cell lines were seeded in a 96-well plate at a density of 2×10^3 cells per well and cultured for 24 hours to allow the cells to attach. The cells were then treated with diluted drugs in media for 3 days and cell viability was assessed using MTT assay or crystal violet (CB) assay. For the MTT assay, MTT solution dissolved in PBS was added to achieve a final concentration of 500 μg/mL and incubated for 2-4 hours, after which the medium was removed and the formed formazan was dissolved in 100% DMSO, followed by measuring the absorbance at 570 nm. For the CB assay, the cultured cells were fixed with 100% methanol, stained with a 0.025% crystal violet solution, dissolved in 1% SDS solution, and the absorbance was measured at 570 nm. Cell viability was calculated as the percentage of absorbance change in drug-treated group compared to vehicle (DMSO) treated control group.

T1 sequence (P0DMV8 2-641): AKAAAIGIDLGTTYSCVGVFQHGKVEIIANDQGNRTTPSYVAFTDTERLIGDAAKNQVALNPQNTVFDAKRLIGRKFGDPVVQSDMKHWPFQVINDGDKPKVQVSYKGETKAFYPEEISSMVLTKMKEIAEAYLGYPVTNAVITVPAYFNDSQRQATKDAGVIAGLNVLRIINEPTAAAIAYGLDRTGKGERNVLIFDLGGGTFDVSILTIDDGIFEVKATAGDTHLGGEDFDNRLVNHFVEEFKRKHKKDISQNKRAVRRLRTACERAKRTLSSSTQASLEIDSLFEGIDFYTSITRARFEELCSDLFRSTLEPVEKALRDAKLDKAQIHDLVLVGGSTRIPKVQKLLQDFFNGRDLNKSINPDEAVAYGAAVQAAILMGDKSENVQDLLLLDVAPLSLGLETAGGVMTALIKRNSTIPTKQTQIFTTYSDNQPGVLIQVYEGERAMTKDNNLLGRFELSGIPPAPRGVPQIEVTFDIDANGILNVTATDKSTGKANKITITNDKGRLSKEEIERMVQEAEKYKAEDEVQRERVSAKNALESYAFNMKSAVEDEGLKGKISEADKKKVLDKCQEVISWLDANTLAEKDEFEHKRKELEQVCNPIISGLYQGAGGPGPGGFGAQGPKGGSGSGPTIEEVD

SMILES: C=CCN1c2ccccc2C(=O)N2CCc3c([nH]c4ccc(O)cc34)C21 (centres unmarked) [EV507]
- formation of colonies under anchorage-dependent conditions [1]: significantly inhibited
- expression of Hsp70 protein and Hsp70/Hsp90 client proteins (Akt, Src, and MEK) ([2]; H1299, H460, A549, H226B lung cancer cell lines (FIG. 4)): clear reduction
- expression of Hsp70 and Src and Akt (client proteins of Hsp70/Hsp90) ([2]; Western blot (FIG. 21)): decrease
- binding to Hsp70 protein, particularly the N-terminal domain [3]: binds
- inhibition at 0.5 µM (lung cancer cell): > 65%
